One experiment deals with Neutrophil. The experiment can be described thus: Induction of ROS production in human polymorphonuclear neutrophils incubated for 10 mins by DHE staining based fluorescence assay. The experiment is classed as functional, cell-based.
For a further experiment, the system named is K562. The experiment can be described thus: Cytotoxicity against PKC sensitive human K562 cells assessed as inhibition of cell growth measured after 7 days by Cell Titer Aqueous96 one solution reagent assay. It is filed as functional, cell-based. The settings on record: K562, 168 h.

Our source for the EC50 and IC50 values is ChEMBL document CHEMBL5120970, “Cryptic Epoxytiglianes from the Kernels of the Blushwood Tree (Fontainea picrosperma)” (J Nat Prod, 2022).

Each structure is given as a SMILES string. A value given as a limit tells only on which side of the number the result lay.

Regarding `C/C=C(\C)C(=O)O[C@@H]1[C@@H](C)[C@@]2(O)[C@H]([C@@H]3C(C)(C)[C@]13OC(=O)[C@@H](C)CC)[C@@H]1O[C@]1(COC(=O)CCCCCCC/C=C\C/C=C\CCCCC)[C@@H](O)[C@]1(O)C(=O)C(C)=C[C@H]12`, in the experiment with Neutrophil, the concentration giving a half-maximal response (EC50) was > 3.63 µM. The half-inhibitory concentration (IC50) with K562 turned out to be 0.124 µM.

In the case of `C/C=C(\C)C(=O)O[C@@H]1[C@@H](C)[C@@]2(O)[C@H]([C@@H]3C(C)(C)[C@]13OC(=O)[C@@H](C)CC)[C@@H]1O[C@]1(CO)[C@@H](O)[C@]1(O)C(=O)C(C)=C[C@H]12` [TIGILANOL TIGLATE], the midpoint of the response in the experiment with Neutrophil, the EC50, lay at 0.125 µM. Moreover, the IC50 in the experiment on K562 was 0.0119 µM.
